The test system of one test is RAW264.7. The experiment in a line: Antiinflammatory activity in mouse RAW264.7 cells assessed as reduction in LPS-induced iNOS expression incubated for 30 mins prior to LPS-challenge measured after 18 hrs. Type of test: functional, cell-based.
Settings: not given
Consider `COc1cc(O)ccc1C(=O)/C=C/c1ccc(O)cc1`, for which the Activity result was “Dose-dependent effect”.

A further test deals with RAW264.7. As to the kind of experiment: Antiinflammatory activity in mouse RAW264.7 cells assessed as inhibition of LPS-induced NO production after 24 hrs by Griess method. It is filed as functional, cell-based. Conditions: RAW264.7, 24 h. A general note: Nitrite, measured by Griess reagent, commonly stands in for NO production.
With `COc1cc(O)ccc1C(=O)/C=C/c1ccc(O)cc1`, the IC50 was 8.1 µM.

Take `COc1cc(C[C@@]2(O)COc3cc(O)ccc3[C@@H]2OC)ccc1O` [CAESALPINIAPHENOL F]: the IC50 was more than 50 µM. Still for that read-out and setting: the same measure for `COc1cc2c(cc1O)[C@@H]1c3ccc(O)cc3OC[C@]1(O)C2`: more than 50 µM; for `Oc1ccc2c(c1)OC[C@]1(O)Cc3c(ccc(O)c3O)[C@H]21` [CAESALPINIAPHENOL E]: more than 50 µM. With `CC1(C)O[C@H]2c3ccc(O)cc3OC[C@@]2(Cc2ccc(O)cc2)O1`, the IC50 was more than 50 µM.

Take `COc1cc(C[C@@]23COc4cc(O)ccc4[C@@H]2OC(C)(C)O3)ccc1O`: the IC50 was more than 50 µM. Take `CO[C@H]1[C@]2(O)COC3=CC(=O)C=C[C@@]31c1cc(O)c(O)cc1C2` [CAESALPINJ]: the IC50 is more than 50 µM. In the case of `Oc1ccc2c(c1)OC[C@]1(O)Cc3cc(O)c(O)cc3[C@H]21` [BRAZILIN], the IC50 worked out at 43.5 µM.

On to `Oc1ccc2c(c1)OC[C@@H]1Cc3cc(O)c(O)cc3[C@H]21` [BRAZILANE], for which the IC50 was found to be 36.7 µM.

In the case of `O=C(c1ccc(O)cc1O)[C@@H](O)Cc1ccc(O)cc1`, the IC50 was more than 50 µM. Turning to `COc1cc2c(cc1O)C[C@@]1(O)COc3cc(O)ccc3[C@@H]21`, the IC50 was more than 50 µM. For `COC1(OC)COc2cc(O)ccc2-c2cc(O)c(O)cc2C1` [PROTOSAPPANINADIMETHYLACETAL], the IC50 is more than 50 µM.

By IC50 is commonly meant the concentration that gives 50% inhibition.
